Experimental data from patent US6569846B1, “Palladium-substituted bacteriochlorophyll derivatives and use thereof” (Yeda Research and Development Co. Ltd., priority 1998, dated 2003).
Where “and” joins values, the source holds several entries; their conditions need not be identical. Identical values can stand only once.

Assays:
RIF-1 fibrosarcoma = experiment: In vivo PDT of RIF-1 fibrosarcoma; set-up: key to Summary (cures), symbol: −: no response
Method: Photodynamic therapy parameters: Mice with tumors measuring 5-7 mm in diameter were entered into PDT experiments. Three Pd-BPheid drug doses (1, 5 and 10 mg/kg) and two light doses (100 and 300 Joules/sq.cm) were evaluated. A formulation of Pd-BPheid dissolved in Cremophor was administered by i.v. tail injection. PDT light exposure was started either 15 minutes, 1 hour or 4 hours following injection. […] A titanium sapphire laser tuned to 757 nm was used as the light source for PDT. Laser generated light was coupled into quartz fibers for delivery of light to tumors. A light power density of 75 mW/sq.cm was used. Tumor size was measured 3 days per week following PDT treatments and the percentage of tumor cures (defined as no tumor recurrence for 40 days post treatment) was determined.
In vivo PDT Response: Tables 4 and 5 hereinafter provide summaries of the PDT treatment results for C3H mice transplanted with either the BA mammary carcinoma or the RIF-1 fibrosarcoma. Each table indicates the following parameters: 1) intravenous drug dose expressed in mg/kg; 2) laser treatment parameters, including the total light dose (J/cm^2), the wavelength (757 nm), the light dose rate (mW/cm^2), and the time interval ([…], 4) toxicity (four mice died shortly after treatment), 5) tumor regrowth (consisting of the number of days between PDT treatment and tumor recurrence) and 6) the number of mice (and percentage) with Pd-BPheid PDT induced tumor cures.

M2R mouse melanoma cells = experiment: Phototoxicity on M2R cells (Example 11, [3H]-thymidine incorporation); type: cell-based
Method: For phototoxicity analysis cells (1×10^4 cells/well) were cultured in 96-well plates for 24 hours to an approximate density of 2×10^4 cells/well. Pigments were dissolved directly in culture medium or in ethanol 95% and further diluted in culture medium to a final concentration of 1% ethanol. The diluted pigments were added and the cells were incubated in the dark for four hours at 37° C. Prior to illumination, the cells were washed once and replaced with fresh culture medium. The plates were then illuminated from the bottom for 10 minutes at room temperature and placed in the culture incubator at 37° C. in the dark. Cell survival was determined 24 hours later. The following control systems were used: Dark control—untreated cells kept in the dark; Light control—cells not treated with sensitizer that were illuminated; Dark toxicity—cells treated with pigment but kept in the dark. Cell survival was determined by [^3H]-thymidine incorporation as described earlier (WO 97/19081). […]
(iii) Phototoxicity study: Analysis was performed with the same protocol as described above (Example 10) with the following changes: Pd-BPheid was dissolved directly in medium containing 10% serum and then added to the cells. Survival of M2R cells was determined by [^3H]-thymidine incorporation and that of human HT29 cells with the MTT assay (Merlin J L et al., 1992 Eur. J. Cancer 28A: 1452-1458).

C6 glioma tumors = experiment: In vivo PDT of C6 glioma tumors and metastasis formation; set-up: species or system CD1 nude mice; conditions: 5 mg/Kg i.v.; for tumor flattening (disappearance): 200 mw/cm^2 for 30 minutes
Method: (i) Materials: Pd-BPheid (prepared as in Example 1) or Pd-BPpheid-SerOMe 5 mg/kg in 20% Cremophor EL.
(ii) Light source: The light source was a Xenon fluorine LS3-PDT lamp (Bio-Spec, Russia), with 10 cm water filter and 720-850 nm light band.
(iv) Tumors: Mice were implanted with 10^6 C6 glioma cells in the foot of the hind leg. Tumors were treated when reached a length of 7-8 mm.
(vii) Protocol: Three groups (10 mice in each) were i.v. injected with 5 mg/Kg of sensitizer (Pd-BPheid or Pd-BPpheid-SerOMe) and immediately illuminated at 200 mw/cm^2, for 30 minutes, and the animals were allowed to recover in the cage. Groups 1 and 2: Animals which received PDT Pd-Bpheid and Pd-BPpheid-SerOMe, respectively. Tumor response and metastasis formation in groin were followed for 4 weeks. Group 3: Animals which were amputated at the ankle joint (paired with group 1) and metastasis formation in groin was followed for 4 weeks. The parameters of response to PDT were the percent of animals with tumor necrosis and disappearance, out of the total number of treated animals. Metatstasis was manifested by appearance of tumors in the groin or elsewhere. The endpoints considered were: follow up for 4 weeks, spontaneous death, tumors reached a diameter of 2 cm, metastasis, whichever came first.

[1] = test system: A431 human epithelial carcinoid cells
Method: (ii) Light source: Halogen lamp (Osram, Germany, 100 W), with 4.5 cm water filter and cut off filter>650 nm. The cells were illuminated for 10 minutes, 15 mW/cm^2, a total energy fluency of 9 J/cm^2. For illumination, the culture plates were placed on a glass table to provide the light from the bottom.
(iii) Phototoxicity study: A431 cells (5×10^4 cells) were seeded in 3 cm dishes in duplicates and cultured to 75% confluency in Dulbecco's modified Eagle's medium (DMEM)+F12 (1:1), buffered with HEPES (25 mM, pH 7.4), fetal calf serum (FCS) with penicillin (0.06 mg/ml) and streptomycin (0.1 mg/ml). […] After a 4-hour period the cells were washed with culture medium and the cells were illuminated with the light source above. Phase contrast microscopic examination was performed at different time points after illumination (0, 0.5, 4 and 24 hours post-PDT) using Zeiss Axiovert-35 light microscope (magnification X320) equipped with a Contax 35 mm SLR camera. In the second dish of every duplicate, cell viability was assessed 24 hours post-PDT using neutral red viability assay (Zhang S Z., 1990, Cell Biol Toxicol 6(2): 219-234).

[2] = 1 mg/Kg i.v., 300 J/cm^2, 757 nm, 75 mW/cm^2, 15 min. interval
[3] = 5 mg/Kg i.v., 300 J/cm^2, 757 nm, 75 mW/cm^2, 1 HR. interval
[4] = 5 mg/Kg i.v., 300 J/cm^2, 757 nm, 75 mW/cm^2, 15 min. interval
[5] = 10 mg/Kg i.v., 100 J/cm^2, 757 nm, 75 mW/cm^2, 1 HR interval
[6] = 10 mg/Kg i.v., 100 J/cm^2, 757 nm, 75 mW/cm^2, 15 min. interval
[7] = 10 mg/Kg i.v., 300 J/cm^2, 757 nm, 75 mW/cm^2, 1 HR interval
[8] = 10 mg/Kg i.v., 300 J/cm^2, 757 nm, 75 mW/cm^2, 4 HR interval
[9] = 10 mg/Kg i.v., 300 J/cm^2, 757 nm, 75 mW/cm^2, 15 min. interval

## CC[C@H]1C2=NC(=Cc3c(C(C)=O)c(C)c4[n]3[Pd][n]3c(c(C)c5c3=C(C3=NC(=C4)[C@@H](C)[C@@H]3CCC(=O)O)[C@@H](C(=O)OC)C5=O)=C2)[C@@H]1C [Pd-BPheid, Pd-bacteriopheophorbide a]
RIF-1 fibrosarcoma; [2]
  Number of Animals with Primary Tumor Regrowth (Days to Recurrence): 2(1 day)
  Summary (cures), symbol: −
  Toxicity (Treatment associated death): 0
RIF-1 fibrosarcoma; [3]
  Number of Animals with Primary Tumor Regrowth (Days to Recurrence): 1(4 days) and 1(2 days) and 1(7 days)
  Toxicity (Treatment associated death): 0
RIF-1 fibrosarcoma; [4]
  Number of Animals with Primary Tumor Regrowth (Days to Recurrence): 1(5 days) and 1(12 days)
  Summary (cures) %: 33.33%
  Summary (cures), number of animals (days): 1(40 days)
  Toxicity (Treatment associated death): 0
RIF-1 fibrosarcoma; [5]
  Number of Animals with Primary Tumor Regrowth (Days to Recurrence): 2(3 days) and 1(6 days)
  Toxicity (Treatment associated death): 0
RIF-1 fibrosarcoma; [6]
  Number of Animals with Primary Tumor Regrowth (Days to Recurrence): 2(12 days) and 1(7 days)
  Toxicity (Treatment associated death): 0
RIF-1 fibrosarcoma; [7]
  Number of Animals with Primary Tumor Regrowth (Days to Recurrence): 1(20 days)
  Summary (cures) %: 25.00%
  Summary (cures), number of animals (days): 1(40 days)
  Toxicity (Treatment associated death): 2
  Toxicity (Treatment associated death), number of animals (day): 2(1 day)
RIF-1 fibrosarcoma; [8]
  Summary (cures), symbol: −
  Toxicity (Treatment associated death): 0
RIF-1 fibrosarcoma; [9]
  Summary (cures) %: 33.33%
  Toxicity (Treatment associated death): 2
  Toxicity (Treatment associated death), number of animals (day): 2(1 day)
RIF-1 fibrosarcoma; 4-hour interval between drug administration and light treatment
  effectiveness of PDT: not effective
RIF-1 fibrosarcoma; light treatments initiated within 1 hour of drug administration
  effectiveness of PDT: effective
M2R mouse melanoma cells
  sensitivity of M2R cells relative to HT-29 cells: about 10 times
C6 glioma tumors
  effect of PDT on C6 glioma tumors: curative
C6 glioma tumors; day 11
  tumor flattening (disappearance): 100%
C6 glioma tumors; day 28
  tumor flattening (disappearance): about 60%
C6 glioma tumors; follow up for 4 weeks
  frequency of metastasis after PDT: up to 23%
[1]; 4-hour incubation, illuminated 10 minutes, 15 mW/cm^2, 9 J/cm^2
  LD90 concentration: 0.1 µM
[1]; after 4 hours post PDT
  cells that lost most of their inner volume: 90%
[1]; post PDT
  time of alteration in the cells membrane structure: 30 min
[1]; sensitizer at LD90 concentration, phase contrast microscopy
  morphological phenotype post PDT: fibrous phenotype
